# T1: RIG-I (Homo sapiens, UniProt O95786)
# T1 construct: HEK293 cells overexpressing either the full length RIG-I; host or cells: HEK293; HCT116 also for the qRT-PCR validation
# T1 sequence (O95786 1-925): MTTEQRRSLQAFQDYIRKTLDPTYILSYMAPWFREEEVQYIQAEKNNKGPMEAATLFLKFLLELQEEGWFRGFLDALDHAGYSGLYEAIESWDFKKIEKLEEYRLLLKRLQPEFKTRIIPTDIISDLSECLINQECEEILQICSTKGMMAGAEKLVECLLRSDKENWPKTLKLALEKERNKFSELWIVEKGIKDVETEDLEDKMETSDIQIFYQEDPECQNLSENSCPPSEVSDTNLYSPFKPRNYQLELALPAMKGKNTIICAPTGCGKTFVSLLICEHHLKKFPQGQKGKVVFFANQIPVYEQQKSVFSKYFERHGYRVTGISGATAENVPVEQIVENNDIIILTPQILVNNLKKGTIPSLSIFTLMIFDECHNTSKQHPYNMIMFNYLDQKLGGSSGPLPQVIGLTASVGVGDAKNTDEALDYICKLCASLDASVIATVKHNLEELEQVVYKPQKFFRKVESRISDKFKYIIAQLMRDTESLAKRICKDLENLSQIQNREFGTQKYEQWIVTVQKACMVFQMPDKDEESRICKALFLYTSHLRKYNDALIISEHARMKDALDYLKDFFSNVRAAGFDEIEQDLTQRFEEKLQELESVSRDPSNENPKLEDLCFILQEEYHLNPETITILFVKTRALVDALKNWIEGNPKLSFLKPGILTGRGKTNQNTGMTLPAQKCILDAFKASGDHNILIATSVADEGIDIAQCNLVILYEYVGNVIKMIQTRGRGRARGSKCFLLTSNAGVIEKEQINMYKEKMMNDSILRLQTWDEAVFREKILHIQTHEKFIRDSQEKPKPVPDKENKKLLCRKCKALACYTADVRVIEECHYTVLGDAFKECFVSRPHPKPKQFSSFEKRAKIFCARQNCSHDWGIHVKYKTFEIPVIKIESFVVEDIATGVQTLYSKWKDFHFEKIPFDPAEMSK
# Target: T1, RIG-I
# Assay: UV cross-linking with quantitative real-time PCR (CLIP-PCR) of RIG-I complexes
# Format: binding
# Protocol: Graphic representation indicating the distribution of non-coding and repetitive RNA molecules bound to RIG-I following exposure to IR as compared to total irradiated cellular RNA. Transcripts were mapped to reference genomes using RepeatMasker. See Methods for further details. […] Cells were UV crosslinked at 150 mJ/cm^2 48 hours post-IR treatment prior to cell lysis. […] FIG. 29H show IFN-b levels in culture supernatant from ICR RIG-I^+/+ and primary MEFs 24 hours post-stimulation with the same set of synthetic U1 oligonucleotides used in (FIG. 29G) The amount of U1 synthetic oligonucleotides used in all stimulation experiments was 1 μg. P values were determined using unpaired Student's t-test. Error bars are SEM. ***P<0.005.
# Technically, identification of RNAs was performed as follows: HEK293 cells were transiently transfected with 3×FLAG-tagged full-size RIG-I in pEF-BOS vector (Addgene; Cambridge, Mass.). Twenty-four hours post-transfection, cells were either mock-irradiated or exposed to IR (6 Gy). Forty-eight hours post-IR, cells were lysed with a modified lysis buffer (50 mM Tris-Cl pH 7.5, 0.15 M NaCl, 0.1% NP-40, 1.0% Triton X-100, 1 mM EDTA pH8.0, 1 mM EGTA pH8.0, 10% Glycerol, 2.5 mM MgCl2, 1 mM DTT, 0.1 mM ATP, and 1× Halt Protease Inhibitor) and incubated on ice for 1 hour. Cell lysates were separated from cell debris by centrifugation at 12,000 rpm at 4° C. Protein concentration was measured by BCA kit. Anti-FLAG monoclonal antibody was added to the cell lysate at a 1:500 dilution, and incubated overnight at 4° C. Protein G sepharose beads were added to the lysates and incubated for at least 2 hours at 4° C. Beads containing the antibody-RIG-I complexes were washed five times in wash buffer (50 mM Tris-Cl pH 7.5, 0.15 M NaCl, 1 mM MgCl2, 0.05% NP-40, 1 mM DTT) and proteins were eluted from the beads using a soft elution buffer (0.5% SDS, 0.1% Tween-20, 50 mM Tris pH 8.0) for 10 minutes at room temperature with vortexing every 2-3 minutes. Proteinase K was added to the eluates and incubated at 50° C. for 45 minutes. Trizol reagent was then added to the solution, and RNA bound to RIG-I was purified following manufacturer's protocol. RNA quality was analyzed using an Agilent Bioanalyzer 2100 with Pico Series II cartridges. RNA yield was measured using the Qubit RNA Broad Range kit. For qRT-PCR validation experiments of RIG-I pulled down RNA, UV cross-linking (2 doses at 150 mJ/cm^2) was performed on HEK293 and HCT116 overexpressing RIG-I prior to cell lysis. The same protocol for pulldown and RNA purification experiments was performed as described above.
Molecule,enrichment in RIG-I: RNA complexes in irradiated samples (HCT116 cells overexpressing RIG-I),"enrichment in purified RIG-I complexes, irradiated vs non-irradiated (HEK293 expressing WT RIG-I, IR 6 Gy) [fold]",binding to RIG-I (RIG-I: RNA complexes isolated from HCT116 cells overexpressing RIG-I)
"U2: snRNA, SEQ ID NO:21",significant enrichment,6,–
"M5: rbRNA, RIG-I agonist, 81 nucleotides, SEQ ID NO:26 (nucleic acid, listed as DNA, chemistry not given here) GACGAAGACCACAAAACCAGATAAAAAATTATTTTTTATCTGGTTTTGTGGTCTTCGTCTATAGTGAGTCGTATTAATTTC",–,–,binds
